Assay results taken from patent US8575107B2, “Clusterin derived peptide” (Compugen Ltd., priority 2008, dated 2013).
Where a SMILES comes first, the peptide text is derived from it.

How the values were obtained:
PC3 cells = assay: Cell cycle analysis by propidium iodide staining (FACS) in PC3 cells; assay type: cell-based; conditions: 300 nM or 1 μM CGEN-CL1, PI staining
Description: (§1) Apoptosis was analyzed either by cell cycle analysis or by PARP cleavage estimation. The amount of cleaved PARP is proportional to the amount of cells undergoing apoptosis (see for example Boulares A. H., et al., 1999, JBC 274:22932-22940).
Cell Cycle Analysis was carried out by Propidium Iodide (PI) Staining. The cells were trypsinized and suspended in DMEM medium+10% FCS. Following centrifugation (1000 rpm, 5 min) the cell pellet was suspended in PBS (1 ml). Fixation with EtOH was performed as follows: cell suspension was transferred into 2.5 ml absolute EtOH (final concentration approx. 70%) by pipetting or by vortexing the suspension at half speed while adding the EtOH) to prevent clustering of cells during the fixation. EtOH fixated cells were incubated on ice for 15 min (or overnight at −20° C.).
Propidium Iodide (PI) staining of the cells was carried out as follows: the cells were pelleted at 1500 rpm for 5 min and then suspended in 500 μl PI-solution (in PBS: 50 μg/ml PI from 50× stock solution (2.5 mg/ml); 0.1 mg/ml RNase A; 0.05% Triton X-100), following incubation for 40 min at 37° C. Then 3 ml of PBS were added, and the cells were pelleted at 1500 rpm, 5 min. The cell pellet was suspended in 500 μl PBS for flow analysis. The flow analysis was carried out using the following approximate settings (on FACSort): FL1: 570 V log; FL2: 470 V linear.

[1] = tested on: cleaved PARP in PC3 cells; assay: Detection of cleaved PARP by Western blot in PC3 cells; assay type: cell-based
Description: as §1
FIG. 3 presents results of detection of cleaved PARP in PC3 cells treated with CGEN-CL1 combined with or without Paclitaxel. PC3 cells were treated with CGEN-CL1 (SEQ ID NO:1), alone or in combination with Paclitaxel, for 48, 72 and 96 hours. Cleaved PARP was detected in cell lysates by Western blot analysis. […] Elevation of the amount of cleaved PARP indicates an increase in apoptotic cells.

[2] = molecular target: T1, recombinant human clusterin (Homo sapiens, UniProt P10909); assay: BIAcore surface plasmon resonance binding of CGEN-CL1 to clusterin; conditions: SPR, 312-5000 nM CGEN-CL1, immobilized clusterin
T1 construct: purchased Biovendor RD172034100
T1 sequence (P10909 23-449): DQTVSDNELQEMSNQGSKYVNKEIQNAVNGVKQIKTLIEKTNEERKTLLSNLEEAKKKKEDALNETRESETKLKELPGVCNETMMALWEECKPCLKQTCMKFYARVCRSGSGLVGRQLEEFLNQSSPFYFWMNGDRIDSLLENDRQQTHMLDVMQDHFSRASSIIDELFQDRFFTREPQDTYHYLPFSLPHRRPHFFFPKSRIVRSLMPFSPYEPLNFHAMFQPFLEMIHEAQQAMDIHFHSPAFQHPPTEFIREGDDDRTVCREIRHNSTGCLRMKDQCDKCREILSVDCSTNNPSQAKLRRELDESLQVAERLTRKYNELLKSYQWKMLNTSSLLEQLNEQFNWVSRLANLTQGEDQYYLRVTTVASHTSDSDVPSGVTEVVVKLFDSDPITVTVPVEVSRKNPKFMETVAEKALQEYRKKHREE
From the text: The capability of CGEN-CL1 to specifically bind to recombinant Clusterin protein was investigated using the BIACORE technology, measuring protein-protein interaction and binding affinity. The technology is based on surface plasmon resonance (SPR), an optical phenomenon that enables detection of unlabeled interactants in real time. The SPR-based biosensors can be used in determination of active concentration, screening and characterization in terms of both affinity and kinetics.
Peptide-protein interaction was analyzed using surface plasmon resonance. Analysis of the interaction between CGEN-CL1 [SEQ ID NO:1] and recombinant human clusterin (Biovendor, Modrice, Czech republic cat no: RD172034100) was conducted using the BIAcore biosensor (Pharmacia Biosensor, Uppsala, Sweden). Clusterin was immobilized directly to a CM5 sensor chip (2000 resonance units (RU)). Solution containing five different concentrations of CGEN-CL1 [SEQ ID NO:1] (312, 625, 1250, 2500 and 5000 nM) was injected into the sample chamber of the BIACORE device and the interaction was monitored for 5 minutes using surface plasmon resonance.
As a background, the solutions were also injected onto an empty flow cell with no immobilized ligand and the binding levels achieved were subtracted. Data were analyzed using BIAevaluation software.

[3] = tested on: A549 human non-small cell lung cancer cells
Description: A549 cells were seeded at 6000 cells per well in 150 μl of media (DMEM medium+5% FBS) in a 96 well plate.
CGEN-CL1 (1 mg dissolved in 2500 of Sodium bi-carbonate to a stock concentration of 4 mg/ml) was added to the wells in 500 of medium (final volume of 2000) as detailed in Table 2. The relative growth was normalized to controls where CGEN-CL1 was not added to wells.

[4] = tested on: breast cancer cell line MCF-7
Description: MCF7 cells were seeded at 10,000 cells per well in 150 μl of media (DMEM medium+5% FBS) in a 96 well plate.
The relative growth was normalized to controls where CGEN-CL1 was not added to wells.

[5] = tested on: MCF-7 breast cancer cell lines; assay: MTT assay, CGEN-CL1 and/or paclitaxel on MCF-7 cells; assay type: cell-based
Description: 20 μl of MTT (3-(4,5-Dimethyl-2-thiazolyl)-2,5-diphenyl-2H-tetrazolium bromide) solution (Sigma Cat#M5655, lot#085k5322, 1 gr was dissolved in 200 ml H2O and filtered, giving a final concentration of 5 mg/ml) was added to each well and incubated for 4 hours at 37° C. after which the medium was vacuumed and 100 μl of DMSO was added to each well. Absorbance was measured in an ELISA reader at 492 nm.
A549, PC3 and MCF7 cells were seeded at 6000, 8000 and 10,000 cells per well respectively in 150 μl of media (DMEM medium+5% FBS) in 96 well plates.
Paclitaxel (Sigma T7402, Lot. 036k1217, Mw 853.9, 5 mg dissolved in 585 μl DMSO to a stock concentration of 10 mM, stored at −20° C.) and/or CGEN-CL1 (1 mg dissolved in 250 μl of sodium bi-carbonate to a stock concentration of 4 mg/ml) were added to the wells in 25 μl of medium (final volume of 200 μl) as detailed in Table 3. The relative growth was normalized to controls where neither paclitaxel nor CGEN-CL1 was added to wells.
An MTT assay was performed as described above in Example 2.

EC50 [3]: 0.95 nM | EC50 [4]: 56 nM
Structure (SMILES): CC[C@H](C)[C@H](NC(=O)[C@H](CCCNC(=N)N)NC(=O)[C@H](CC(=O)O)NC(=O)CNC(=O)[C@H](CC(N)=O)NC(=O)[C@H](CCSC)NC(=O)[C@H](Cc1c[nH]c2ccccc12)NC(=O)[C@H](Cc1ccccc1)NC(=O)[C@H](Cc1ccc(O)cc1)NC(=O)[C@H](Cc1ccccc1)NC(C)=O)C(=O)N[C@@H](CC(=O)O)C(=O)N[C@@H](CO)C(=O)N[C@@H](CC(C)C)C(=O)N[C@@H](CC(C)C)C(=O)N[C@@H](CCC(=O)O)C(=O)N[C@@H](CC(N)=O)C(=O)N[C@@H](CC(=O)O)C(=O)N[C@@H](CCCNC(=N)N)C(=O)N[C@@H](CCC(N)=O)C(=O)N[C@@H](CCC(N)=O)C(=O)N[C@H](C(N)=O)[C@@H](C)O [CGEN-CL1] (Ac-FYFWMNGDRIDSLLENDRQQT-NH2)
percentage of apoptotic cells (PC3 cells): increased the percentage of apoptotic cells | percentage of cells in cell cycle phases (PC3 cells): increased the percentage of cells in cell cycle phases G0/G1 and G2/M | amount of cleaved PARP ([1]; PC3 cells treated with Paclitaxel plus CGEN-CL1, 48 hours): dramatically enhanced the amount of cleaved PARP | amount of cleaved PARP ([1]; PC3 cells, CGEN-CL1 alone, 48 hours): caused an enhancement in the amount of cleaved PARP | amount of cleaved PARP ([1]; PC3 cells, CGEN-CL1 alone, 72 hours, administration at time zero and after 48 hours): significant increase in cleaved PARP | binding to parent protein clusterin [2]: binds to its parent protein clusterin in a dose dependent manner | concentration achieving maximal growth inhibition ([4]; MCF-7 breast cancer cells, MTT): approximately 900 nM | concentration with a growth inhibiting effect (as little as) ([4]; MCF-7 breast cancer cells, MTT): 50 nM | Relative Growth ([5]; CGEN-CL1 7.1 nM + Paclitaxel 2.25 nM): 0.62 | Relative Growth ([5]; CGEN-CL1 7.1 nM + Paclitaxel 30.00 nM): 0.31 | Relative Growth ([5]; CGEN-CL1 7.1 nM alone): 0.68 | Relative Growth ([5]; CGEN-CL1 22.3 nM + Paclitaxel 2.25 nM): 0.53 | Relative Growth ([5]; CGEN-CL1 22.3 nM + Paclitaxel 30.00 nM): 0.28 | Relative Growth ([5]; CGEN-CL1 22.3 nM alone): 0.61 | Relative Growth ([5]; CGEN-CL1 63.2 nM + Paclitaxel 2.25 nM): 0.46 | Relative Growth ([5]; CGEN-CL1 63.2 nM + Paclitaxel 30.00 nM): 0.24 | Relative Growth ([5]; CGEN-CL1 63.2 nM alone): 0.48 | Relative Growth ([5]; CGEN-CL1 185.9 nM + Paclitaxel 2.25 nM): 0.45 | Relative Growth ([5]; CGEN-CL1 185.9 nM + Paclitaxel 30.00 nM): 0.25 | Relative Growth ([5]; CGEN-CL1 185.9 nM alone): 0.49 | Relative Growth ([5]; CGEN-CL1 557.6 nM + Paclitaxel 2.25 nM): 0.42 | Relative Growth ([5]; CGEN-CL1 557.6 nM + Paclitaxel 30.00 nM): 0.23 | Relative Growth ([5]; CGEN-CL1 557.6 nM alone): 0.46 | effect of timing on cell growth ([5]; CGEN-CL1 added 24 hours after 30 nM paclitaxel vs concomitantly): need for lower concentrations of CGEN-CL1 to achieve the same effect | effect on growth inhibition when given in combination ([5]; CGEN-CL1 and paclitaxel in combination): synergistic effect | CGEN-CL1 concentration giving further inhibition of cell proliferation (as little as) ([5]; at 30 nM Paclitaxel): 7.1 nM
